Measured values reported in publication PMC12481929, “Oral delivery of teriparatide utilizing biocompatible transferrin-engineered MOF nanoparticles for osteoporosis therapy” (Materials Today Bio, 2025).

Key:
[1] = In vivo pharmacokinetics, serum TRP by ELISA; details: osteoporotic mice
Method: The pharmacokinetics and pharmacodynamics of M@P@T NPs were evaluated using the osteoporosis mice model. Mice were randomly divided into three experimental groups, with five mice per group: TRP SC, M@P, and M@P@T. M@P NPs (200 μg kg^−1) and M@P@T NPs (200 μg kg^−1) were administered by oral gavage, while TRP (20 μg kg^−1) was injected subcutaneously. Serum TRP concentrations were measured using an ELISA kit. Blood samples were collected at 0, 0.5, 1, 1.5, 2, 3, 6, 8, and 12 h post-administration to determine TRP concentration. The area under the serum TRP concentration−time curve (AUC) was calculated to determine the relative bioavailability of M@P@T. The pharmacokinetic parameters of M@P@T were then compared to those of TRP SC and M@P groups.

[2] = test system: osteoporosis model mice (OVX); assay: New bone formation in vivo, micro-CT of femurs; details: one month, M@P@T 200 μg kg^−1 oral, TRP 20 μg kg^−1 SC daily
Method: This study was approved by the Animal Ethics Committee of Wuhan University (ethics number WP20230395), and all animal experiments were conducted in accordance with the Regulations on the Management of Experimental Animals in China and the guidelines of the Committee for Animal Care and Use at Wuhan University. In this study, 6-week-old female C57 mice (purchased from Beijing HFK Bioscience Co., Ltd.) were randomly divided into five groups (Sham, OVX, M@P, M@P@T, and TRP SC). Bilateral ovariectomy was performed via a dorsal incision to establish an osteoporosis model. In the Sham group, the same volume of fat tissue was removed bilaterally. After surgery, the mice were regularly given penicillin and pain medication. All mice were housed in a comfortable environment at 22–25 °C and […] and had free access to food and water. The successful construction of the osteoporosis model was confirmed two months after surgery via micro–computed tomography (micro-CT).
To validate the in vivo efficacy of the NPs, we measured various bone parameters related to the formation of new bone and its internal structure using micro-CT (SkyScan 1276) following the ASBMR reporting standards. […] The efficacy of new bone formation was assessed by comparing these parameters determined from the control and treatment groups.

Compound: CC[C@H](C)[C@H](NC(=O)[C@H](CCC(=O)O)NC(=O)[C@H](CO)NC(=O)[C@@H](NC(=O)[C@@H](N)CO)C(C)C)C(=O)N[C@@H](CCC(N)=O)C(=O)N[C@@H](CC(C)C)C(=O)N[C@@H](CCSC)C(=O)N[C@@H](Cc1cnc[nH]1)C(=O)N[C@@H](CC(N)=O)C(=O)N[C@@H](CC(C)C)C(=O)NCC(=O)N[C@@H](CCCCN)C(=O)N[C@@H](Cc1cnc[nH]1)C(=O)N[C@@H](CC(C)C)C(=O)N[C@@H](CC(N)=O)C(=O)N[C@@H](CO)C(=O)N[C@@H](CCSC)C(=O)N[C@@H](CCC(=O)O)C(=O)N[C@@H](CCCN=C(N)N)C(=O)N[C@H](C(=O)N[C@@H](CCC(=O)O)C(=O)N[C@@H](Cc1c[nH]c2ccccc12)C(=O)N[C@@H](CC(C)C)C(=O)N[C@@H](CCCN=C(N)N)C(=O)N[C@@H](CCCCN)C(=O)N[C@@H](CCCCN)C(=O)N[C@@H](CC(C)C)C(=O)N[C@@H](CCC(N)=O)C(=O)N[C@@H](CC(=O)O)C(=O)N[C@H](C(=O)N[C@@H](Cc1cnc[nH]1)C(=O)N[C@@H](CC(N)=O)C(=O)N[C@@H](Cc1ccccc1)C(=O)O)C(C)C)C(C)C [TRP, teriparatide]
- time to return to the baseline level ([1]; 20 μg kg^−1 SC): ≤ 2 h
- Tmax ([1]; mouse, in vivo, 20 ug/kg, 20 μg kg^−1 SC, read-out: time of peak plasma concentration of TRP): 30 min
- AUC(0-t) ([1]; mouse, sc, 20 ug/kg, n = 5, TRP 20 µg/kg s.c., M@P and M@P@T 200 µg/kg oral, serum TRP ELISA, 0-12 h, mean ± SD): 0.117 ± 0.0112 ng·h/mL
- F, relative bioavailability ([1]; n = 5, relative to TRP 20 µg/kg s.c., oral 200 µg/kg): 100%
- new bone formation (3D reconstruction) [2]: more new bone formation than the other groups
